# In ChEMBL document CHEMBL1159283, “Further brominated bis- and tris-indole alkaloids from the deep-water New Caledonian marine sponge Orina Sp” (J Nat Prod, 1995):
# The source made the active and inactive calls. The calls are words filed in the database; no cut-off is given here.
# Experiments:
# [1] = Binding affinity to regulatory site of NMDA receptor at 5 ug/mL by glycine binding assay
# [2] = Binding affinity to VIP receptor at 5 ug/mL
# BOWES = experiment: Binding affinity to galanin receptor in human BOWES cells at 5 ug/mL; format: cell-based
# [3] = Binding affinity to neurotensin receptor at 5 ug/mL
# [4] = biological target: Calcitonin gene-related peptide type 1 receptor (Homo sapiens) (UniProt Q16602); experiment: Binding affinity to CGRP receptor at 5 ug/mL
# Sequence of Calcitonin gene-related peptide type 1 receptor (Homo sapiens) (Q16602 whole entry): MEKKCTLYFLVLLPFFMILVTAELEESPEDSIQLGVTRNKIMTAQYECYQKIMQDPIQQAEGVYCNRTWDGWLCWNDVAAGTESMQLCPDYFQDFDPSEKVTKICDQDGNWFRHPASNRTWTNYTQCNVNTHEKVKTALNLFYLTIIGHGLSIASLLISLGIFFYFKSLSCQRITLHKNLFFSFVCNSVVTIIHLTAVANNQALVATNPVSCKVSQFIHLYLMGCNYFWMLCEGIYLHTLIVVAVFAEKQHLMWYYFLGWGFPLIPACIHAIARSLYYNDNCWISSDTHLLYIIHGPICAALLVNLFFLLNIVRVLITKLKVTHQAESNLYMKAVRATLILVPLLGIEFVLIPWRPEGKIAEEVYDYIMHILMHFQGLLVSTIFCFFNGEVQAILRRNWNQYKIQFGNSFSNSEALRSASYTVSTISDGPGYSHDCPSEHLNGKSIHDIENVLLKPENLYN
# [5] = Antagonist activity at serotonin receptor in guinea pig ileum assessed as inhibition of serotonin-induced contraction; format: functional, tissue-based; conditions: Cavia porcellus
# [6] = biological target: Somatostatin receptor (Rattus norvegicus) (UniProt Q7TT86); experiment: Displacement of [125I]somatostatin from somatostatin receptor in rat cerebral cortices membrane at 5 ug/mL; format: cell membranes
# Sequence of Somatostatin receptor (Rattus norvegicus) (Q7TT86 as listed by the source): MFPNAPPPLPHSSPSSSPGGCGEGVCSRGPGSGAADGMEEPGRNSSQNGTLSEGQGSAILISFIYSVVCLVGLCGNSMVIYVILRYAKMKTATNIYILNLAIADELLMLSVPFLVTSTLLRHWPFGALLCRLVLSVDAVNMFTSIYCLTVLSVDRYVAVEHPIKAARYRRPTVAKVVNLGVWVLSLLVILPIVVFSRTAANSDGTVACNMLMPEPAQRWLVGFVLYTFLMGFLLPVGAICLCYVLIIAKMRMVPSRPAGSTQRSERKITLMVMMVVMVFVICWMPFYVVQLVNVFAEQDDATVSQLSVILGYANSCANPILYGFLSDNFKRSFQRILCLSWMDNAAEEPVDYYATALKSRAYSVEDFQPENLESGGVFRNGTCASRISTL
# Rattus norvegicus = species: Rattus norvegicus; experiment: Displacement of [3H]NPY from neuropeptide Y receptor in rat cerebral cortices membrane at 5 ug/mL; format: cell membranes
# [7] = biological target: T1, B2 bradykinin receptor (Homo sapiens) (UniProt P30411); experiment: Displacement of [3H]bradykinin from bradykinin B2 receptor expressed in baculovirus-infected SF21 cells at 5 ug/mL
# T1 sequence (whole entry): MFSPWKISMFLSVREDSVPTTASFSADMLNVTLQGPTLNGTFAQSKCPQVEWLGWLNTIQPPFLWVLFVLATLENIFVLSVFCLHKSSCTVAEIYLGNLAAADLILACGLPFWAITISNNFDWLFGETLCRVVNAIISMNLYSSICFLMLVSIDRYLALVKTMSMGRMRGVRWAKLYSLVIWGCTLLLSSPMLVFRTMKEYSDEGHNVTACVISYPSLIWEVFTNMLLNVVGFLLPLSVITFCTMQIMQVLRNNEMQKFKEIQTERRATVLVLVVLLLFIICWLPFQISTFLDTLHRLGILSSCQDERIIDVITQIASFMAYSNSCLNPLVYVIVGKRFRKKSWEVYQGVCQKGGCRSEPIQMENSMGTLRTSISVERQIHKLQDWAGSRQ
# [8] = biological target: T2, Neuromedin-K receptor (Homo sapiens) (UniProt P29371); experiment: Binding affinity to NK3 tachykinin receptor at 5 ug/mL by senktide binding assay
# T2 sequence (whole entry): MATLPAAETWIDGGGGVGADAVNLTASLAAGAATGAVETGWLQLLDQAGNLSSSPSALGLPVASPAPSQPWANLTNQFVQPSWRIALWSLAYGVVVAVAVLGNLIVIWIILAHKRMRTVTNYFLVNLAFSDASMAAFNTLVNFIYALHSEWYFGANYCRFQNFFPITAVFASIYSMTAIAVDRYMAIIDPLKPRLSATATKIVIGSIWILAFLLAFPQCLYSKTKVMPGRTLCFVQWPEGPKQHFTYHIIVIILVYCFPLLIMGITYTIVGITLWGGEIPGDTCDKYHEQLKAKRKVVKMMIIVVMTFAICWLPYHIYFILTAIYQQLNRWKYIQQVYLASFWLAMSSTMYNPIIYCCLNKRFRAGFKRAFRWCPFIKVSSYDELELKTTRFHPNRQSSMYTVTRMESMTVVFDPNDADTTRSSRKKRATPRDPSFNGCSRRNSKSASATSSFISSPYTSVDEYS
# [9] = Binding affinity to quisqualate site of glutamate receptor at 5 ug/mL by AMPA binding assay
Structure (SMILES),Activity [1],Activity [2],Activity [3],Activity [4],IC50 [5],Activity [6],inhibition (Rattus norvegicus),inhibition [7],Activity [8],Activity [9],Activity (BOWES)
NCCc1c(C(CN)c2c[nH]c3cc(Br)ccc23)[nH]c2cc(Br)ccc12 (racemic),inactive,inactive,inactive,inactive,10 µM,91%,67%,89%,inactive,inactive,inactive
NCCc1c(C(CN)c2c[nH]c3cc(Br)ccc23)[nH]c2ccc(O)c(C(CN)c3c[nH]c4cc(Br)ccc34)c12 (racemic),–,–,–,–,2 µM,–,–,–,–,–,–
NCCc1c[nH]c2ccc(O)c(C(CN)c3c[nH]c4cc(Br)ccc34)c12 (racemic),–,–,–,–,100 µM,–,–,–,–,–,–
NCCc1c(C(CN)c2c[nH]c3cc(Br)ccc23)[nH]c2ccc(O)cc12 (racemic),inactive,inactive,inactive,inactive,50 µM,87%,63%,63%,inactive,inactive,inactive

# More lines, main results first:
Activity [1],Activity [2],Activity [3],Activity [4],IC50 [5],Activity [6],inhibition (Rattus norvegicus),inhibition [7],Activity [8],Activity [9],Structure (SMILES),Activity (BOWES)
–,–,–,–,–,–,90%,100%,–,–,NCCc1c(C(CN)c2c[nH]c3cc(Br)ccc23)[nH]c2cc(C(CN)c3c[nH]c4cc(Br)ccc34)c(O)cc12 (stereo in doubt; form 1),–
inactive,inactive,inactive,inactive,–,Active,–,–,inactive,inactive,NCCc1c(C(CN)c2c[nH]c3cc(Br)ccc23)[nH]c2cc(C(CN)c3c[nH]c4cc(Br)ccc34)c(O)cc12 (racemic),inactive
–,–,–,–,–,–,62%,93%,–,–,NCCc1c(C(CN)c2c[nH]c3cc(Br)ccc23)[nH]c2cc(C(CN)c3c[nH]c4cc(Br)ccc34)c(O)cc12 (stereo in doubt; form 2),–
